One assay concerns the target human CYP4F2 (Homo sapiens (Human), UniProt P78329). Put plainly: Inhibition test against 20-HETE producing enzyme CYP4F2 (luciferine derivative, luminescence). The class given is biochemical. Here is the method: (§1) (1) Inhibition Test for Each Compound of the Present Invention Against 20-HETE Producing Enzymes (CYP4F2 and CYP4A11)
(§2) In the CYP4F2 inhibition test, the reaction solution containing each compound [final concentration of 50 mM, KPO4 (pH 7.4), 2.5 μM luciferine derivative, and 1 mM NADPH] was added to an Escherichia coli membrane fraction (100 μg/mL protein) in which human CYP4F2 had been expressed. In the CYP4A11 inhibition test, the reaction solution containing each compound [final concentration of 100 mM, Tris-HCl (pH 7.5), 60 μM luciferine derivative, 1.3 mM NADP^+, 3.3 mM Glucose 6-Phosphate, 3.3 mM MgCl2, and 0.4 U/mL Glucose 6-Phosphate dehydrogenase] was added to an Escherichia coli membrane fraction (100 μg/mL protein) in which human CYP4A11 had been expressed. Following this, the membrane fraction was left to stand at room temperature for 60 minutes to perform an enzymatic reaction. After the reaction, a luciferine detection reagent was added, and the luminescence value was measured using a plate reader. By using that value, the percent inhibition of 20-HETE producing enzyme (%) was calculated according to the equation described below, and the 50% inhibitory concentration (IC50 value) for each compound was calculated. Percent inhibition of 20-HETE producing enzyme (%)=[1−(A−B)/(C−B)]*100
(§3) A: Luminescence value with addition of compound
(§4) B: Luminescence value without addition of compound and enzyme

The target of the next assay is human CYP4A11 (Homo sapiens (Human), UniProt Q02928). Put plainly: Inhibition test against 20-HETE producing enzyme CYP4A11 (luciferine derivative, luminescence). The class given is biochemical. Here is the method:
as §1, §2, §3, §4

Where [1] appears, read: E. coli membrane fraction expressing human CYP4F2, 2.5 μM luciferine derivative, room temperature 60 minutes.
[2] abbreviates: E. coli membrane fraction expressing human CYP4A11, 60 μM luciferine derivative, room temperature 60 minutes.
Where [3] appears, read: human CYP4F2, luciferine derivative, luminescence.
Where [4] appears, read: human CYP4A11, luciferine derivative, luminescence.

Sequence of human CYP4F2 (P78329 5-520): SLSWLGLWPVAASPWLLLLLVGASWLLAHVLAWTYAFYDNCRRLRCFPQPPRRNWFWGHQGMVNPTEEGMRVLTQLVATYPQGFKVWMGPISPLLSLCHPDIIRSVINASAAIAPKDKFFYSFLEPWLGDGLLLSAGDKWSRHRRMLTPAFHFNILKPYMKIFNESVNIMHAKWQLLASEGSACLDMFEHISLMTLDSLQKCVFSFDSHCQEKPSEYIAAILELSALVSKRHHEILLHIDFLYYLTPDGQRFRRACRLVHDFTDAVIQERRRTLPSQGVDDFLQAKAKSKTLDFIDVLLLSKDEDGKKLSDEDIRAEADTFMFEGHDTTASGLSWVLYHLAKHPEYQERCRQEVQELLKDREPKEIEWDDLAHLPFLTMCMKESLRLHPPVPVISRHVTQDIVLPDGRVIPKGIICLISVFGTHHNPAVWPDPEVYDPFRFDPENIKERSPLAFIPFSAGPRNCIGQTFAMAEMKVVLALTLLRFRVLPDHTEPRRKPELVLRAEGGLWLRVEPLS
Sequence of human CYP4A11 (Q02928 5-519): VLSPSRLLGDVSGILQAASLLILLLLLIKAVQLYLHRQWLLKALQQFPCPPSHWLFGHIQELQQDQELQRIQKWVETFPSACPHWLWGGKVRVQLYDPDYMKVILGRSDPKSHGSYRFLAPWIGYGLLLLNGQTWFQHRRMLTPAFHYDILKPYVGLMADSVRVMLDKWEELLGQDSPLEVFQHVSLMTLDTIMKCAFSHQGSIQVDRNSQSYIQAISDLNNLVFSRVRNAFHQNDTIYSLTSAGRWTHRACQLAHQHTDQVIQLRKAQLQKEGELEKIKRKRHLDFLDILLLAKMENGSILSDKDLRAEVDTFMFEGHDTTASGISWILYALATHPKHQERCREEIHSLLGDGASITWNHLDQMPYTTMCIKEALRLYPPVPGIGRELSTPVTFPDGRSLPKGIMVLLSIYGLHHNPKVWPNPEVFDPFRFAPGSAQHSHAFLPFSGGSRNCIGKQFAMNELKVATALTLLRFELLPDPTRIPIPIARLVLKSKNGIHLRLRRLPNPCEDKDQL

With `O=C(O)CC[C@H]1CCC[C@@H](COc2ccc(-c3ccn[nH]3)nc2)C1` (racemic) [Example 2-6, cis-3-[3-[[6-(1H-Pyrazol-5-yl)-3-pyridinyl]oxymethyl]cyclohexyl]propanoic Acid (Racemate)], the IC50 against human CYP4F2 (setting [1]) worked out at 1300 nM; at human CYP4A11 (setting [2]), 25 nM.
Consider `O=C(O)[C@H]1CCC[C@H](COc2ccc(-c3ccn[nH]3)nc2)C1` (racemic) [Example 9-1, trans-3-[[6-(1H-Pyrazol-5-yl)-3-pyridinyl]oxymethyl]-1-cyclohexanecarboxylic Acid (Racemate)], for which the IC50 worked out at 1900 nM against human CYP4F2 (setting [1]) and 51 nM at human CYP4A11 (setting [2]).
On to `O=C(O)C1CC1c1cccc(COc2ccc(-c3ccn[nH]3)nc2)c1` (single isomer, unassigned) [Example 26-1, trans-2-[3-[[6-(1H-Pyrazol-5-yl)-3-pyridinyl]oxymethyl]phenyl]-1-cyclopropanecarboxylic Acid], for which the IC50 was determined as 400 nM on human CYP4F2 (setting [1]) and 20 nM on human CYP4A11 (setting [2]).
With `O=C(O)C1CC1c1ccc(CCOc2ccc(-c3ccn[nH]3)nc2)c(F)c1` (single isomer, unassigned) [Example 71-17], the figures for the half-maximal inhibitory concentration (IC50) against human CYP4F2 (setting [3]) and on human CYP4A11 (setting [4]) were 520 nM and 250 nM, respectively.
The like results for `O=C(O)C1CC1c1cccc(COc2ccc(-c3ccn[nH]3)nc2)c1F` (single isomer, unassigned) [Example 71-45, 2-[2-Fluoro-3-[[6-(1H-pyrazol-5-yl)pyridin-3-yl]oxymethyl]phenyl]cyclopropane-1-carboxylic Acid] were, in that order, 210 nM and 15 nM.
The like results for `O=C(O)C1CC1c1ccc(F)c(CCOc2ccc(-c3ccn[nH]3)nc2)c1` (single isomer, unassigned) [Example 74-7] were, in that order, 1300 nM and 78 nM.
Turning to `O=C(O)C1CC1c1ccc(F)c(CCOc2ccc(-c3ccn[nH]3)nc2)c1` (single isomer, unassigned) [Example 74-8], the IC50 against human CYP4F2 (setting [3]) was 410 nM; against human CYP4A11 (setting [4]) it was 77 nM.
For `O=C(O)C1CC1c1cc(F)cc(CCOc2ccc(-c3ccn[nH]3)nc2)c1` (single isomer, unassigned) [Example 74-10] the same measures were 2600 nM and 56 nM.
On to `O=C(O)C1CC1c1cc(F)cc(CCOc2ccc(-c3ccn[nH]3)nc2)c1` (single isomer, unassigned) [Example 74-11], for which the values for the concentration for half-maximal inhibition (IC50) on human CYP4F2 (setting [3]) and at human CYP4A11 (setting [4]) were 1200 nM and 78 nM, respectively.
Take `O=C(O)C1CCc2ccc(COc3ccc(-c4[nH]ncc4Cl)nc3)cc2O1` (single isomer, unassigned) [Example 75-7]: the IC50 against human CYP4F2 (setting [3]) turned out to be 20 nM; at human CYP4A11 (setting [4]) it was 7.7 nM.
The like results for `O=C(O)C1CCc2ccc(COc3ccc(-c4[nH]ncc4Cl)nc3)cc2O1` (single isomer, unassigned) [Example 75-8] were, in that order, 67 nM and 67 nM.
`O=C(O)c1ccc(COc2ccc(-c3ccn[nH]3)nc2)cc1` [Example 1-1, 4-[[6-(1H-Pyrazol-5-yl)-3-pyridinyl]oxymethyl]benzoic Acid]: the IC50 against human CYP4F2 (setting [1]) is 15000 nM; against human CYP4A11 (setting [2]), 37 nM.
For `CC(Oc1ccc(-c2ccn[nH]2)nc1)c1ccc(C(=O)O)cc1` (stereo not drawn) [Example 1-2] the same measures were 42000 nM and 250 nM.
Turning to `O=C(O)CCc1ccc(COc2ccc(-c3ccn[nH]3)nc2)cc1` [Example 1-3], the concentration for half-maximal inhibition (IC50) turned out to be 220 nM against human CYP4F2 (setting [1]) and 79 nM against human CYP4A11 (setting [2]).
For `O=C(O)CCc1ccccc1COc1ccc(-c2ccn[nH]2)nc1` [Example 1-4] the same measures were 16000 nM and 110 nM.
For `O=C(O)c1ccc(CCOc2ccc(-c3ccn[nH]3)nc2)cc1` [Example 1-5], the IC50 against human CYP4F2 (setting [1]) came to 3500 nM; against human CYP4A11 (setting [2]), 150 nM.
The like results for `O=C(O)c1cccc(CCOc2ccc(-c3ccn[nH]3)nc2)c1` [Example 1-6] were, in that order, 2300 nM and 340 nM.
For the compound `O=C(O)c1ccccc1CCOc1ccc(-c2ccn[nH]2)nc1` [Example 1-7], the half-inhibitory concentration (IC50) against human CYP4F2 (setting [1]) turned out to be 11000 nM; on human CYP4A11 (setting [2]), 2400 nM.
In the case of `O=C(O)c1ccc(CCCOc2ccc(-c3ccn[nH]3)nc2)cc1` [Example 1-8], the IC50 on human CYP4F2 (setting [1]) turned out to be 2600 nM; on human CYP4A11 (setting [2]), 78 nM.
The like results for `O=C(O)c1cccc(CCCOc2ccc(-c3ccn[nH]3)nc2)c1` [Example 1-9] were, in that order, 480 nM and 79 nM.
For `O=C(O)c1ccccc1CCCOc1ccc(-c2ccn[nH]2)nc1` [Example 1-10] the same measures were 27000 nM and 4200 nM.
The like results for `O=C(O)CCCc1ccccc1COc1ccc(-c2ccn[nH]2)nc1` [Example 1-11] were, in that order, 43000 nM and 24 nM.
For `O=C(O)CCCCc1ccccc1COc1ccc(-c2ccn[nH]2)nc1` [Example 1-12], the IC50 against human CYP4F2 (setting [1]) was more than 50000 nM; against human CYP4A11 (setting [2]) it was 170 nM.
On to `O=C(O)Cc1ccc(CCOc2ccc(-c3ccn[nH]3)nc2)cc1` [Example 1-13], for which the IC50 was 2700 nM on human CYP4F2 (setting [1]) and 31 nM against human CYP4A11 (setting [2]).
For `O=C(O)Cc1cccc(CCOc2ccc(-c3ccn[nH]3)nc2)c1` [Example 1-14] the same measures were 7800 nM and 21 nM.
`O=C(O)CCc1ccc(CCOc2ccc(-c3ccn[nH]3)nc2)cc1` [Example 1-15]: the IC50 against human CYP4F2 (setting [1]) turned out to be 670 nM; at human CYP4A11 (setting [2]), 210 nM.
Take `O=C(O)CCc1cccc(CCOc2ccc(-c3ccn[nH]3)nc2)c1` [Example 1-16]: the IC50 was found to be 1100 nM on human CYP4F2 (setting [1]) and 36 nM against human CYP4A11 (setting [2]).
For `O=C(O)CCc1ccccc1CCCOc1ccc(-c2ccn[nH]2)nc1` [Example 1-17] the same measures were 5100 nM and 16 nM.
For `O=C(O)c1ccc(CCCCOc2ccc(-c3ccn[nH]3)nc2)cc1` [Example 1-18] the same measures were 330 nM and 14 nM.
The like results for `O=C(O)c1cccc(CCCCOc2ccc(-c3ccn[nH]3)nc2)c1` [Example 1-19] were, in that order, 220 nM and 9.5 nM.
In the case of `O=C(O)C12CCC(COc3ccc(-c4[nH]ncc4Cl)nc3)(CC1)CC2` [Example 1-20], the IC50 at human CYP4F2 (setting [1]) was found to be 9200 nM; on human CYP4A11 (setting [2]), 16 nM.
The like results for `O=C(O)C12CCC(COc3cnc(-c4ccn[nH]4)c(F)c3)(CC1)CC2` [Example 1-21] were, in that order, 31000 nM and 29 nM.
Regarding `Cc1cc(OCC23CCC(C(=O)O)(CC2)CC3)cnc1-c1ccn[nH]1` [Example 1-22], the half-inhibitory concentration (IC50) was more than 50000 nM at human CYP4F2 (setting [1]) and 38 nM at human CYP4A11 (setting [2]).
For `O=C(O)CCC(=O)N1CCC[C@H](COc2ccc(-c3ccn[nH]3)nc2)C1` [Example 1-23] the same measures were 20000 nM and 320 nM.
Consider `O=C(O)CCC(=O)N1CCC[C@@H](COc2ccc(-c3ccn[nH]3)nc2)C1` [Example 1-24], for which the IC50 worked out at 15000 nM against human CYP4F2 (setting [1]) and 170 nM on human CYP4A11 (setting [2]).
For `O=C(O)Cn1cc(-c2cccc(COc3ccc(-c4ccn[nH]4)nc3)c2)ccc1=O` [Example 1-25] the same measures were 1600 nM and 120 nM.
For `O=C(O)C1CC(CCOc2ccc(-c3ccn[nH]3)nc2)C1` (stereo not drawn) [Example 1-26] the same measures were 14000 nM and 43 nM.
For `O=C(O)C1CC1CCCOc1ccc(-c2ccn[nH]2)nc1` (stereo not drawn) [Example 1-27] the same measures were 41000 nM and 38 nM.
In the case of `O=C(O)C1CC1CCCOc1ccc(-c2ccn[nH]2)nc1` (stereo not drawn) [Example 1-28], the IC50 came out at 19000 nM against human CYP4F2 (setting [1]) and 74 nM on human CYP4A11 (setting [2]).
Consider `O=C(O)C1CCCC(CCCOc2ccc(-c3ccn[nH]3)nc2)C1` (stereo not drawn) [Example 1-29], for which the IC50 against human CYP4F2 (setting [1]) stood at 360 nM; on human CYP4A11 (setting [2]), 30 nM.
The like results for `O=C(O)C12CCC(CCCOc3ccc(-c4ccn[nH]4)nc3)(CC1)CC2` [Example 1-30] were, in that order, 4100 nM and 34 nM.
As to `CC(C)(CC(=O)N1CCC(CCCOc2ccc(-c3ccn[nH]3)nc2)CC1)C(=O)O` [Example 1-31], the values for the 50% inhibitory concentration (IC50) against human CYP4F2 (setting [1]) and on human CYP4A11 (setting [2]) were 160 nM and 1700 nM, respectively.
The like results for `CC(C)(CC(=O)N1CCCC(CCCOc2ccc(-c3ccn[nH]3)nc2)C1)C(=O)O` (stereo not drawn) [Example 1-32] were, in that order, 3800 nM and 9300 nM.
For `O=C(O)C1(CCCCOc2ccc(-c3ccn[nH]3)nc2)CCC1` [Example 1-33] the same measures were 15000 nM and 74 nM.
Regarding `O=C(O)C1(CCCCOc2ccc(-c3ccn[nH]3)nc2)CCCC1` [Example 1-34], the figures for the IC50 against human CYP4F2 (setting [1]) and against human CYP4A11 (setting [2]) were 1800 nM and 38 nM, respectively.
As for `O=C(O)C1(CCCCOc2ccc(-c3ccn[nH]3)nc2)CCCCC1` [Example 1-35], the IC50 on human CYP4F2 (setting [1]) was determined as 2200 nM; at human CYP4A11 (setting [2]), 84 nM.
For `CC(C)(Oc1cccc(CCCCOc2ccc(-c3ccn[nH]3)nc2)c1)C(=O)O` [Example 1-36] the same measures were 1300 nM and 110 nM.
In the case of `O=C(O)c1cccc(S(=O)(=O)N2CCC[C@@H](COc3ccc(-c4ccn[nH]4)nc3)C2)c1` [Example 1-37], the values for the half-maximal inhibitory concentration (IC50) on human CYP4F2 (setting [1]) and against human CYP4A11 (setting [2]) were 94 nM and 21 nM, respectively.

By IC50 is commonly meant the point on the concentration scale where inhibition reaches its midpoint. Low readings indicate greater potency, high ones weaker potency.

The values are drawn from patent US11365192B2, “Pyridine compound substituted with azole” (TAISHO PHARMACEUTICAL CO., LTD., priority 2017, dated 2022).
